Laboratory results: US20200397818A1, “Multi-Mineral Supplement for Improved Bone Density” (priority 2017, published 2020)

Test system: human mescenchymal stem cell (hMSCs)
Settings: MTT
Protocol: The MTT colorimetric cell viability provides a straightforward and quantifiable method for determining cell viability in a wide variety of cell types. An MTT assay was used to determine the cytotoxicity of Mg, Sr, Cu, and/or Zn ions in human mescenchymal stem cells. In a typical assay 2.8×10^4 cells/cm^2 human mescenchymal stem cell (hMSCs) were cultured in a low glucose DMEM culture medium supplemented with 10% (v/v) fetal bovine serum (FBS, Biowest, France), antibiotics (100 U/ml of penicillin and 100 μg/ml of streptomycin), and 2 mM L-glutamine using 96-well tissue culture plates. After one day of cell culture, testing solutions with a range of concentrations (Table 1) of different potential ions were added to the wells. The MTT solution was prepared by adding thiazolyl blue tetrazolium bromide powder to the phosphate buffered saline (PBS, OXOID Limited, England) and 10 μL of 5 mg/mL MTT solution was added on the next day. 100 μL of 10% sodium dodecyl sulfate (SDS, Sigma, USA) in 0.01 M hydrochloric acid was added to each well after four hours of culturing and incubated at 37° C. in an atmosphere of 5% CO2 and 95% air overnight. Finally, the absorbance was recorded by a multimode detector at a wavelength of 570 nm with a reference wavelength of 640 nm. Cell viability was quantified from the absorbance readings.

Compound: O=S(=O)([O-])[O-].[Cu+2] [Cu ions, CuSO4]
- ion concentration with loss of viability (ion tested independently): ≥ 25 ppm

Compound: [Cl-].[Cl-].[Mg+2] [Mg ion, MgCl2]
- ion concentration above which most of the cells became non-viable (ion tested independently): exceeded 1000 ppm
- ion concentration above which viability began to decrease (ion tested independently): exceeded 400 ppm

Compound: [Cl-].[Cl-].[Sr+2] [Sr ion, SrCl2]
- cell viability relative to control cells (ion concentrations of 100 to 400 ppm): 115%
- cell viability (treatment with up to 1,000 ppm): ~100%

Compound: [Cl-].[Cl-].[Zn+2] [Zn ions, ZnCl2]
- ion concentration above which significant cell death was found (ion tested independently): exceeded 1 ppm
